# According to paper PMC9656319, “Pharmacokinetics and Tissue Distribution of Coumarins from Tagetes lucida in an LPS-Induced Neuroinflammation Model” (Plants, 2022):
# Key:
# [1] = Stability of the analytes in spiked plasma, brain, kidney and spleen matrices (autosampler, long-term, freeze-thaw); type: physicochemical, mice; details: for Stability Autosampler RE (%): processed samples in autosampler vials 24 h room temperature; for Stability Freeze-Thaw RE (%): three cycles (−4 °C to 25 °C); for Stability Long-Term RE (%): −70 °C for 30 days
# Method: The stability of the compounds obtained from each enriched matrices at the QC concentrations was evaluated under different conditions that covered the processing, handling, and storage phases that could be developed throughout the study.
# Individual stock solutions of PE, SC, DF, HR, PU, and rutin (IS) were prepared separately in methanol (1 mg/mL) and stored at −4 °C until use. From the stocks, a working solution in methanol was prepared at a concentration of 200 µg/mL of each coumarin. Blank plasma or organs supernatant samples (80 µL) were spiked with 20 µL of serial dilutions of working solution to obtain calibration curves ranging between 0.156, 0.312, 0.625, 1.25, 2.5, 5, 10, 20, and 40 µg/mL of each coumarin. Quality control (QC) samples were prepared at three levels of 0.3 (low), 3 (medium), and 30 (high) µg/mL for each coumarin.
# The stability of the analytes in plasma, brain, kidneys, and spleen was evaluated by the analyzed concentrations of QC subjected to three different conditions. Short-term stability was determined by analysis of samples processed in the autosampler vials at 24 h at room temperature. Long-term stability was tested on samples stored at −70 °C for 30 days. Freeze-thaw stability was determined after three cycles (−4 °C to 25 °C) on three consecutive days.
# [2] = Tissue distribution in the brain after oral hexanic extract of Tagetes lucida, healthy and LPS-administrated mice; type: in vivo, ICR mice; details: after the initial absorption process
# Method: After blood sampling, the mice were sacrificed in a chamber with chloroform by an overdose of anesthesia. The brain, kidney, and spleen were quickly removed and rinsed with saline solution, fresh weight was recorded, and immediately placed on ice. Subsequently, the organs were freeze-dried, grounded, and weighted. The lyophilized organs were individually suspended in methanol in a 1:1 volume: dry weight ratio for 24 h, then sonicated for 5 min and centrifuged at 14,000 rpm for 7 min. The supernatants were recovered in clean tubes and stored at −70 °C until their use.
# (§1) One hundred microliters of plasma and organs samples, spiked with calibration and QC concentration or samples from the pharmacokinetic study, were mixed with 300 µL of acetonitrile containing the IS at 10 µg/mL for protein precipitation, and vortexed for 3 min. Then, 200 µL of dichloromethane were added, for liquid–liquid extraction of the bioactive compounds, and vortexed for 5 min. The mixture was centrifuged at 14,000 rpm for 10 min, and the extracted organic layers were placed in new tubes, until completely dry at room temperature. For quantitative analysis, samples were resuspended in 100 µL of methanol, transferred to sampling vials, and injected into the chromatographic system, described below.
# A pharmacokinetic study was carried out in sixty mice, divided in six subgroups, according to sample collection times. An acute inflammation process by the intraperitoneal (i.p.) administration of LPS at 2 mg/kg was induced in half of the mice per group, while the other half received an i.p. injection of saline solution. Ten min after the damage was induced, the mice were administered with an oral dose of 10 mg/kg of the bioactive fraction dissolved in a 1% Tween-20 aqueous solution. […]
# To evaluate the distribution in the tissues, bioactive coumarins were quantified in the lyophilized organs, and concentrations were adjusted to the volumes of liquid obtained by the difference between the dry and fresh weights of each tissue to simulate a distribution approximation of the compounds by tissue system.
# [3] = Pharmacokinetic study in plasma after oral hexanic extract of Tagetes lucida, healthy and LPS-damaged mice; type: in vivo, ICR mice; details: plasma, 10 mg/kg oral hexanic extract, mean ± SEM (n = 5); for Cmax / AUC(0-inf) / MRT / Tmax / half-life / AUC(0-t): ICR, mouse, po, 10 mg/kg; for Cmax: non-compartmental; for AUC(0-t): to 6 h
# Method: The optimized HPLC-validated method for the quantification of coumarins present in the hexane extract of T. lucida was used to evaluate the concentration profiles over time in the plasma, brain, kidney, and spleen biological matrices after an oral administration of 10 mg/kg of the extract.
# Blood samples were obtained from the retro-orbital sinus of mice and collected in heparinized tubes. Plasma was separated by centrifugation at 3500 rpm for 5 min and stored in new Eppendorf tubes at −70 °C, until further processing.
# as §1
# A pharmacokinetic study was carried out in sixty mice, divided in six subgroups, according to sample collection times. An acute inflammation process by the intraperitoneal (i.p.) administration of LPS at 2 mg/kg was induced in half of the mice per group, while the other half received an i.p. injection of saline solution. Ten min after the damage was induced, the mice were administered with an oral dose of 10 mg/kg of the bioactive fraction dissolved in a 1% Tween-20 aqueous solution. Blood and tissue samples were obtained and processed at 0, 0.25, 0.75, 1.5, 2, 4, and 6 h post-dosing, as indicated in the “Samples collection” and “Plasma and tissue samples processing” sections.
# Pharmacokinetic parameters of PE, SC, DF, HR, and PU in plasma were calculated by PKSolver software.
structure (smiles),measurement,setting,value
"COc1cc2ccc(=O)oc2cc1OCC=C(C)C [PE, 7-O-prenylscopoletin]",Stability Autosampler RE (%),"[1]; brain, nominal 0.3 µg/mL",-2.37%
same,Stability Freeze-Thaw RE (%),"[1]; brain, nominal 0.3 µg/mL",-1.15%
same,Stability Long-Term RE (%),"[1]; brain, nominal 0.3 µg/mL",-0.63%
same,Stability Autosampler RE (%),"[1]; brain, nominal 3.0 µg/mL",-0.34%
same,Stability Freeze-Thaw RE (%),"[1]; brain, nominal 3.0 µg/mL",-2.34%
same,Stability Long-Term RE (%),"[1]; brain, nominal 3.0 µg/mL",-3.44%
same,Stability Autosampler RE (%),"[1]; brain, nominal 30.0 µg/mL",4.05%
same,Stability Freeze-Thaw RE (%),"[1]; brain, nominal 30.0 µg/mL",-1.25%
same,Stability Long-Term RE (%),"[1]; brain, nominal 30.0 µg/mL",-3.82%
same,Stability Autosampler RE (%),"[1]; kidney, nominal 0.3 µg/mL",7.06%
same,Stability Freeze-Thaw RE (%),"[1]; kidney, nominal 0.3 µg/mL",2.26%
same,Stability Long-Term RE (%),"[1]; kidney, nominal 0.3 µg/mL",3.02%
same,Stability Autosampler RE (%),"[1]; kidney, nominal 3.0 µg/mL",3.99%
same,Stability Freeze-Thaw RE (%),"[1]; kidney, nominal 3.0 µg/mL",0.91%
same,Stability Long-Term RE (%),"[1]; kidney, nominal 3.0 µg/mL",2.69%
same,Stability Autosampler RE (%),"[1]; kidney, nominal 30.0 µg/mL",1.61%
same,Stability Freeze-Thaw RE (%),"[1]; kidney, nominal 30.0 µg/mL",1.12%
same,Stability Long-Term RE (%),"[1]; kidney, nominal 30.0 µg/mL",7.34%
same,Stability Autosampler RE (%),"[1]; plasma, nominal 0.3 µg/mL",-4.00%
same,Stability Freeze-Thaw RE (%),"[1]; plasma, nominal 0.3 µg/mL",2.80%
same,Stability Long-Term RE (%),"[1]; plasma, nominal 0.3 µg/mL",-6.86%
same,Stability Autosampler RE (%),"[1]; plasma, nominal 3.0 µg/mL",11.12%
same,Stability Freeze-Thaw RE (%),"[1]; plasma, nominal 3.0 µg/mL",-2.01%
same,Stability Long-Term RE (%),"[1]; plasma, nominal 3.0 µg/mL",-4.44%
same,Stability Autosampler RE (%),"[1]; plasma, nominal 30.0 µg/mL",8.22%
same,Stability Freeze-Thaw RE (%),"[1]; plasma, nominal 30.0 µg/mL",-5.55%
same,Stability Long-Term RE (%),"[1]; plasma, nominal 30.0 µg/mL",-5.20%
same,Stability Autosampler RE (%),"[1]; spleen, nominal 0.3 µg/mL",-5.98%
same,Stability Freeze-Thaw RE (%),"[1]; spleen, nominal 0.3 µg/mL",2.50%
same,Stability Long-Term RE (%),"[1]; spleen, nominal 0.3 µg/mL",1.51%
same,Stability Autosampler RE (%),"[1]; spleen, nominal 3.0 µg/mL",-10.42%
same,Stability Freeze-Thaw RE (%),"[1]; spleen, nominal 3.0 µg/mL",4.42%
same,Stability Long-Term RE (%),"[1]; spleen, nominal 3.0 µg/mL",3.67%
same,Stability Autosampler RE (%),"[1]; spleen, nominal 30.0 µg/mL",-1.02%
same,Stability Freeze-Thaw RE (%),"[1]; spleen, nominal 30.0 µg/mL",2.38%
same,Stability Long-Term RE (%),"[1]; spleen, nominal 30.0 µg/mL",2.78%
same,time at which the highest concentration in the brain tissue is reached,[2],15 min
same,Cmax,[3]; LPS-damaged ICR mice (LPS 2 mg/kg i.p.),1770 ± 310 ng/mL
same,AUC(0-inf),[3]; LPS-damaged ICR mice,6370 ± 1200 ng·h/mL
same,MRT,[3]; LPS-damaged ICR mice,6.96 ± 1.92 h
same,Tmax,[3]; LPS-damaged ICR mice,0.85 ± 0.28 h
same,half-life,[3]; LPS-damaged ICR mice,4.48 ± 1.31 h
same,AUC(0-t),[3]; LPS-damaged ICR mice,3520 ± 100 ng·h/mL
same,AUC(0-inf),[3]; healthy ICR mice,1700 ± 310 ng·h/mL
same,MRT,[3]; healthy ICR mice,3.04 ± 0.45 h
same,Tmax,[3]; healthy ICR mice,1.55 ± 0.34 h
same,half-life,[3]; healthy ICR mice,1.86 ± 0.55 h
same,Cmax,[3]; healthy ICR mice,930 ± 290 ng/mL
same,AUC(0-t),[3]; healthy ICR mice,1560 ± 350 ng·h/mL
same,Cl/F,[3]; LPS-damaged ICR mice,17.38 ± 2.25 (mg/kg)/(μg/mL)/h
same,Cl/F,[3]; healthy ICR mice,65.83 ± 10.18 (mg/kg)/(μg/mL)/h
